Source: patent publication US4875922A, “Pyrimidine derivatives” (Imperial Chemical Industries PLC, priority 1986, dated 1989)

How the values were obtained:
Barley = assay: Whole plant screen for plant growth regulator activity, barley (BR); format: in vivo, Barley (Atem); conditions: BR, 4000 ppm (4 kg/ha), visual score after 2-6 weeks; for T = Tillering or side shooting: * = decrease in tillering
Method in brief: (§1)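 Growth-regulator effects were judged by eye on glasshouse plants 2-6 weeks post-spray (timing varying with season), using formulation blanks for comparison. Application rate was 4000 ppm, equivalent to 4 kg/ha in 1000 l/ha.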

Rice [1] = assay: Intermediate Retardant Test, rice; format: in vivo, Rice (Ishikari); conditions: Oryza sativa, 672 h, overall spray, approximately 28 days, Table VI, read-out: Percentage Reduction in Height of Rice (Compared to formulation blank)
Source text: (§2) Three species are involved in this test RICE, SPRING-BARLEY and APPLES. The variety and growth stages at spray are outlined in Table V. Compounds were applied at 500 ppm and 2000 ppm respectively (0.5 kg and 2 kg/ha^-1 at a field volume of 1000 l/ha^-1) as an overall spray except in the case of certain tests on APPLES. This gives a foliar and root component in the test, i.e., this test will detect the activity of both root and foliar acting compounds. The intermediate retardant test on APPLES of which the results are given in Table IX was different, in that a foliar (only) spray at 2000 ppm was compared with a root drench, also at 2000 ppm. The rice was grown in 4" `paddy` pots, i.e., the roots and bottom of the stems are immersed in water under conditions corresponding to those in paddy fields. Spring barley and apples were grown in 4" pots. The plants were assessed for height to top-most ligule at approximately 28 days after treatment for spring barley and rice and for height to apex at approximately 28 days after the treatment for apples. In each case the result for the 500 ppm and 2000 ppm test for each compound is compared to the height of the formulation blank in that test, presented as a percentage reduction in height compared to the formulation blank.
(§3) The prior art compound was compared with compounds of the present invention in side-by-side comparisons using the Intermediate Retardant Test described in Example 62, and the results are given in Tables X to XII where `A` is the prior art compound, 2-methyl-1-isopropyl-1-(pyrimidin-5-yl)-propan-1-ol).

Maize = assay: Whole plant screen for plant growth regulator activity, maize (MZ); format: in vivo, Maize (Earliking); conditions: 4000 ppm (4 kg/ha), visual score after 2-6 weeks
Procedure: Compounds 1 to 3 in Table 1 were tested for plant growth regulator activity against five species for various growth effects relevant to plant growth regulation.
The plant species used in this screen are presented in Table II with the leaf stage at which they were sprayed. Each chemical was applied at 4000 ppm (4 kg/ha in a 1000 l/ha field volume) using a tracksprayer and a SS8004E (Teejet) nozzle.
After spray the plants were grown in a glasshouse with 25° C. day/22° C. night temperatures and supplementary lighting was supplied when necessary (from mercury vapour lamps), to provide a 16 hour photoperiod. The exception to this were the temperate cereals, wheat and barley which were grown in 16° C. day/13° C. night temperatures.
After 2-6 weeks in the glasshouse, depending on the time of year, the plants were visually assessed for morphological characteristics. Formulation blanks were used as controls to assess the plants. […]

Tomato = assay: Whole plant screen for plant growth regulator activity, tomato (TO); format: in vivo, Tomato (Ailsa Craig); conditions: 4000 ppm (4 kg/ha), visual score after 2-6 weeks
Method in brief: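 Plant growth regulation scored visually 2–6 weeks post-spray, relative to formulation-blank controls, with growth at 25/22 °C day/night under 16 h light. Treatment: 4000 ppm (4 kg/ha, 1000 l/ha volume) track-sprayed onto Ailsa Craig tomato at the 2–2½ leaf stage, grown singly in 3-inch peat pots.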

Apple = assay: Whole plant screen for plant growth regulator activity, apple (AP); format: in vivo, Apple (Red Delicious); conditions: 4000 ppm (4 kg/ha), visual score after 2-6 weeks
Method in brief: as §1

Wheat = assay: Whole plant screen for plant growth regulator activity, wheat (WW); format: in vivo, Wheat (Timmo); conditions: WW, 4000 ppm (4 kg/ha), visual score after 2-6 weeks; for T = Tillering or side shooting: * = decrease in tillering
Method in brief: as §1

Spring Barley = assay: Intermediate Retardant Test, spring barley; format: in vivo, Spring Barley (Atem/kym); conditions: Hordeum vulgare, 672 h, overall spray, approximately 28 days, Table VII, read-out: Percentage Reduction in Height of Spring Barley (Compared to formulation blank)
Source text: as §2, §3

Apples = assay: Intermediate Retardant Test, apples, foliar spray compared with root drench; format: in vivo, Apples (Red Delicious); conditions: 672 h, approximately 28 days, Table IX, read-out: Percentage Reduction in Height of Apples (Compared to formulation blank); for percent reduction in plant height at 2000 ppm: 2000 ppm (Foliar); for percent reduction in plant height at 2000 µg/mL: soil, 2000 pmm (Root), root drench
Source text: as §2, §3

Rice [2] = assay: Whole plant screen for plant growth regulator activity, rice (RC); format: in vivo, Rice (Ishikari); conditions: 4000 ppm (4 kg/ha), visual score after 2-6 weeks
Method in brief: as §1

SMILES | G = Greening effect (Barley) | I = Interligular or internodal length reduction (Barley) | R = Retardation (Barley) | T = Tillering or side shooting (Barley) | Percent reduction in rice height vs formulation blank at 500 ppm (Rice [1]) [%] | Percent reduction in rice height vs formulation blank at 2000 ppm (Rice [1]) [%] | G = Greening effect (Maize) | I = Interligular or internodal length reduction (Maize) | R = Retardation (Maize) | G = Greening effect (Tomato) | I = Interligular or internodal length reduction (Tomato) | R = Retardation (Tomato) | G = Greening effect (Apple) | I = Interligular or internodal length reduction (Wheat) | R = Retardation (Wheat) | T = Tillering or side shooting (Wheat) | percent reduction in plant height at 500 ppm (Spring Barley) [%] | percent reduction in plant height at 2000 ppm (Spring Barley) [%] | percent reduction in plant height at 2000 ppm (Apples) [%] | percent reduction in plant height at 2000 µg/mL (Apples) [%] | further results
CC(C)C(O)(C#CCCCCl)c1cncnc1 (stereo not shown) [Compound 8, 2-Methyl-1-(5-chloropen-1-yne)-1-(pyrimidin-5-yl)-propan-1-ol] | 2 (31-60%) | 2 (31-60%) | 3 (61-100%) | 1 (10-30%) | 43 | 54 | 1 (10-30%) | 3 (61-100%) | 3 (61-100%) | 2 (31-60%) | 3 (61-100%) | 3 (61-100%) | 2 (31-60%) | 3 (61-100%) | 3 (61-100%) | 3 (61-100%) | 31 | 63 | 6 | 49.3 | T = Tillering or side shooting (Maize; * = decrease in tillering): 1 (10-30%); I = Interligular or internodal length reduction (Apple): 3 (61-100%); R = Retardation (Apple): 3 (61-100%); G = Greening effect (Wheat): 2 (31-60%)
CCC(C)CCC(O)(c1cncnc1)C(C)C (stereo not shown) [Compound 6, 2-Methyl-1-(3-methylpentyl)-1-(pyrimidin-5-yl)propan-1-ol] | 1 (10-30%) | 3 (61-100%) | 2 (31-60%) | – | 26 | 50 | 1 (10-30%) | 2 (31-60%) | 2 (31-60%) | 2 (31-60%) | 2 (31-60%) | 2 (31-60%) | – | 3 (61-100%) | 3 (61-100%) | 1 (10-30%) | 22 | 57 | 18.8 | 72.1 | I = Interligular or internodal length reduction (Rice [2]): 2 (31-60%); R = Retardation (Rice [2]): 2 (31-60%)
CC(C)CCC#CC(O)(c1cncnc1)C(C)C (stereo not shown) [Compound 12, 2-Methyl-1-(5-methylhex-1-yne)-1-(pyrimidin-5-yl)-propan-1-ol] | 2 (31-60%) | 3 (61-100%) | 2 (31-60%) | 3 (61-100%) | 5 | 8 | – | – | – | 1 (10-30%) | – | – | 1 (10-30%) | 2 (31-60%) | 2 (31-60%) | 1 (10-30%) | 3 | 19 | 2 | 58 | G = Greening effect (Rice [2]): 1 (10-30%); I = Interligular or internodal length reduction (Rice [2]): 2 (31-60%); R = Retardation (Rice [2]): 2 (31-60%); T = Tillering or side shooting (Rice [2]; * = decrease in tillering): 1 (10-30%); I = Interligular or internodal length reduction (Apple): 3 (61-100%); R = Retardation (Apple): 2 (31-60%); G = Greening effect (Wheat): 1 (10-30%)
CCCC#CC(O)(c1cncnc1)C(C)(C)C (stereo not shown) [Compound 14, 2,2-Dimethyl-1-(pent-1-yne)-1-(pyrimidin-5yl)propan-1ol] | 2 (31-60%) | 3 (61-100%) | 3 (61-100%) | 3 (61-100%) | 63 | 76 | 2 (31-60%) | 3 (61-100%) | 2 (31-60%) | 2 (31-60%) | 2 (31-60%) | 3 (61-100%) | 3 (61-100%) | 3 (61-100%) | 3 (61-100%) | 3 (61-100%) | 51 | 68 | 23 | 58.5 | G = Greening effect (Rice [2]): 2 (31-60%); I = Interligular or internodal length reduction (Rice [2]): 2 (31-60%); R = Retardation (Rice [2]): 3 (61-100%); A = Apical damage (Maize): 1 (10-30%); I = Interligular or internodal length reduction (Apple): 3 (61-100%); R = Retardation (Apple): 3 (61-100%); T = Tillering or side shooting (Apple; * = decrease in tillering): 1 (10-30%); G = Greening effect (Wheat): 2 (31-60%)
